Source: patent publication US20030045680A1, “Peptidic modulators of the androgen receptor” (Praecis Pharmaceuticals Inc., priority 2001, published 2003)
Read-outs that look alike come from different tables or passages of the source. Square brackets hold non-standard residues; d marks the D form. Peptide text beside a SMILES is read from it.

Experiments:
[1] = target: T1, glutathione S-transferase/human androgen receptor DNA binding domain (amino acids 505-635) (GST-DBD) (Homo sapiens, UniProt P10275); test: ARE binding assay (competition binding, electrochemiluminescence)
T1 construct: gift of Dr. Steven Balk (neither purchased nor made by the applicant)
T1 sequence (P10275 505-635): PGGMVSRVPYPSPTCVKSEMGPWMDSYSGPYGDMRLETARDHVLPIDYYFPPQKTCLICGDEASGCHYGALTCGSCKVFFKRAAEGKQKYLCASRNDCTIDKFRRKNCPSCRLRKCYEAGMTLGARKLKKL
Method: Anti-glutathione S-transferase monoclonal antibody was purchased from Upstate Biotechnology, Inc., Lake Placid, N.Y. (catalogue #05-311). Prior to ruthenium labeling, 1 mg/ml antibody was dialyzed against phosphate-buffered saline, pH 7.2, for 24 hours at 4° C. A 0.5 mg of antibody was incubated with 18.8 μg Origen TAG-succinimidyl ester (IGEN, International, Inc. Gaithersburg, Md., catalogue # 110034) for 1 hour at room temperature in the dark. The reaction was stopped with 20 μl 2M glycine for 10 minutes in the dark. Free label was removed with a NAP-5 column. Protein concentration was determined using the micro-BCA assay (catalogue #23235ZZ) from Pierce, Rockford, Ill.
Oligonucleotides were purchased from Integrated DNA Technologies, Inc., Coralville, Iowa. One nmole of each complementary oligonucleotide, Biotin-5′-[…]-3′ (SEQ ID NO:54) and 5′-[…]-3′ (SEQ ID NO:55) was added to 10 μl water and heated to 95° C. for 2 minutes. NaCl was added to a final concentration of 50 mM and the oligonucleotides were allowed to anneal at room temperature. After 1 hour, the annealed oligonucleotides were resuspended in 1 ml water.
The glutathione S-transferase/human androgen receptor DNA binding domain (amino acids 505-635) (GST-DBD) was obtained from Dr. Steven Balk. Synthesis of similar androgen receptor fusion proteins has been previously described (Sun, Z., Pan, J. and Balk, S. P. (1997) Nucleic Acids Research 25:3318-3325). The competition binding assay was performed in phosphate-buffered saline, pH 7.2, containing 100 ng/ml poly dI/dC (Sigma-Aldrich Co., St. Louis, Mo., catalogue #P4929) in a final volume of 0.2 ml by incubating 3 ng oligonucleotide, 200 ng GST-DBD, 30 ng antibody and the desired concentration of test compound. After 1.5 hours in the dark at room temperature, 12.5 μg streptavidin-coated M-280 Dynabeads (IGEN International, Inc. Gaithersburg, Md., catalogue # 402-175-02) were added and incubated while shaking for 30 minutes in the dark. Plates were analyzed on an IGEN M8 Electrochemiluminescence Detection Unit (IGEN, International, Inc. Gaithersburg, Md.).

[2] = target: T2, glutathione S-transferase/human androgen receptor DNA binding domain (amino acids 505-635) (human), P10275
T2 chain: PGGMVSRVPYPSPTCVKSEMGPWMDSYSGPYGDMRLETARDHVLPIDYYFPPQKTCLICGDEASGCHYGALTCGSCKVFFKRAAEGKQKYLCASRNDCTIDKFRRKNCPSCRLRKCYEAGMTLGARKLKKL

[3] = target: T3, glutathione S-transferase/human androgen receptor DNA binding domain (amino acids 505-635) (human, UniProt P10275 505-635); test: ECL competition binding assay (IGEN M8): peptide against GST-DBD binding to biotinylated ARE oligonucleotide
T3 construct: Fusion protein obtained from Dr. Steven Balk; also called GST-DBD; not shown: glutathione S-transferase fusion partner
T3 sequence (looked up): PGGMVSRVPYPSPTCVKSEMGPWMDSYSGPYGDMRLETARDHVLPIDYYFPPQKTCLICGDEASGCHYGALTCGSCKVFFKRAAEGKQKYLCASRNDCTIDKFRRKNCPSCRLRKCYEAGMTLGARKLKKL

[4] = target: T2, glutathione S-transferase/human …; test: as above
[5] = target: glutathione S-transferase/human androgen receptor DNA binding domain (amino acids 505-635) (human) (UniProt P10275); test: as above
[6] = inhibition of binding of androgen receptor DNA binding domain to biotinylated ARE oligonucleotide, average where more than one assay, replications in parentheses, read-out: IC50

“Ac-TIESSSDE-NH2 [compound 28, Ac-TIESSSDE-NH2]” gave an IC50 [1, 6] of 22 µM.

“Ac-LTIESSSDEE-OH [compound 30, Ac-LTIESSSDEE-OH]” was tested, and the IC50 [1, 6] was 7.4 µM.

Work on “Ac-ESSSDE-NH2 [compound 50, Ac-ESSSDE-NH2]” yielded an IC50 [1, 6] of 11 µM.

In the case of “H-YGRKKRRQRRRGGGGLTIESSSDEE-NH2 [compound 54]”, the IC50 [1] is reported as 6.5 µM.

“Ac-LTIESS-NH2 [compound 26, Ac-LTIESS-NH2]” gave an IC50 [1, 6] greater than 50 µM.

With “Ac-IESSSDEE-NH2 [compound 48, Ac-IESSSDEE-NH2]” the IC50 [1, 6] was greater than 50 µM.

Molecule “Ac-IESLSD-NH2 [compound 35, Ac-IESLSD-NH2]” has an IC50 [1, 6] of 20 µM.

Molecule “Ac-TPVSSMSSDL-NH2 [compound 14, Ac-TPVSSMSSDL-NH2]” has an IC50 [1, 6] of 7.4 µM.

`CC[C@@H](C)[C@@H](NC(=O)[C@@H](CCC(=O)O)NC(=O)[C@@H](CO)NC(=O)[C@@H](CO)NC(=O)[C@@H](CO)NC(=O)[C@@H](CC(=O)O)NC(C)=O)C(N)=O` [compound 39, Ac-dsssei-NH2] (Ac-[dD][dS][dS][dS][dE][dI]-NH2) was tested, and the IC50 [1, 6] was 20 µM.

“Ac-VRVPSVTSVDPAAIPPSLTDY-NH2 [compound 7]” showed an IC50 [1, 6] greater than 50 µM.

Work on “Ac-DSSSEI-NH2 [compound 37, Ac-DSSSEI-NH2]” yielded an IC50 [1, 6] of 20 µM.

Work on “Ac-KVESSSVFS-NH2 [compound 9, Ac-KVESSSVFS-NH2]” yielded an IC50 [1, 6] greater than 50 µM.

“Ac-KPASVTVASDASKKIDVIDL-NH2 [compound 2]” showed an IC50 [1, 6] greater than 50 µM.

In the case of “H-LTIESSSDEE-NH2 [compound 15, H-LTIESSSDEE-NH2]”, the IC50 [1, 6] is reported as 25 µM.

“Ac-LTIESSSDEEEDPPAKRKAIF-NH2 [compound 3]” gave an IC50 [1, 6] of 22 µM.

In the case of “Ac-IESASD-NH2 [compound 32, Ac-IESASD-NH2]”, the IC50 [1, 6] is reported as 20 µM.

“Ac-LTIESSSAEE-NH2 [compound 22, Ac-LTIESSSAEE-NH2]” was tested, and the IC50 [1, 6] was 20 µM.

In the case of “Ac-TIESSSDEE-NH2 [compound 27, Ac-TIESSSDEE-NH2]”, the IC50 [1, 6] is reported as 22 µM.

In the case of “Ac-LTAESSSDEE-NH2 [compound 18, Ac-LTAESSSDEE-NH2]”, the IC50 [1, 6] is reported as 25 µM.

For “Ac-KGVLMYQSSVRVPSVTSVDP-NH2 [compound 6]”, the IC50 [1, 6] was greater than 50 µM.

In the case of “Ac-EDPPAKRKAIFMSETQSSPTK-NH2 [compound 4]”, the IC50 [1, 6] is reported as greater than 50 µM.

Molecule `CC[C@@H](C)[C@@H](NC(C)=O)C(=O)N[C@H](CCC(=O)O)C(=O)N[C@H](CO)C(=O)N[C@H](CO)C(=O)N[C@H](CO)C(=O)N[C@H](CC(=O)O)C(N)=O` [compound 38, Ac-iesssd-NH2] (Ac-[dI][dE][dS][dS][dS][dD]-NH2) has an IC50 [1, 6] of 20 µM.

In the case of “Ac-IASASD-NH2 [compound 33, Ac-IASASD-NH2]”, the IC50 [1, 6] is reported as 20 µM.

In the case of “Ac-SSSDEE-NH2 [compound 51, Ac-SSSDEE-NH2]”, the IC50 [1, 6] is reported as 22 µM.

“Ac-ATIESSSDEE-NH2 [compound 16, Ac-ATIESSSDEE-NH2]” was tested, and the IC50 [1, 6] was 25 µM.

“Ac-LAIESSSDEE-NH2 [compound 17, Ac-LAIESSSDEE-NH2]” was tested, and the IC50 [1, 6] was 25 µM.

H-YGRKKRRQRRRGGGGLTIESSSDEE-NH2 [H-…-NH2] gave an IC50 [2] of 6.5 µM.

B1: Ac-IESFSD-NH2 (peptide)
peptide: Ac-IESFSD-NH2
notes: variant of Cmpd 49 (IESSSD); also called Cmpd No. 34
For B1, the IC50 [3] was 63 µM.

B2: Ac-IESVSD-NH2 (peptide)
peptide: Ac-IESVSD-NH2
notes: variant of Cmpd 49 (IESSSD); also called Cmpd No. 36
B2 showed an IC50 [3] of 5.3 µM.

B3: Ac-IESSSD-NH2 (peptide)
peptide: Ac-IESSSD-NH2
notes: truncation of Cmpd 10; also called Cmpd No. 49
Work on B3 yielded an IC50 [3] of 4.3 µM.

B4: Ac-FMSETQSSPTK-NH2 (peptide)
peptide: Ac-FMSETQSSPTK-NH2
notes: synthetic peptide of the series based on amino acids 423-548 of ARIP3; also called Cmpd No. 11
B4 gave an IC50 [3] of 5.6 µM.

B5: Ac-LTIESSSDEEEDPPAKRKAIF-NH2 (peptide)
peptide: Ac-LTIESSSDEEEDPPAKRKAIF-NH2
notes: synthetic peptide of the series based on amino acids 423-548 of ARIP3; also called Cmpd No. 3
In the case of B5, the IC50 [3] is reported as 22 µM.

B6: Ac-PAAIPPSLTDYSVPFHHTPVSSMSSDL-NH2 (peptide)
peptide: Ac-PAAIPPSLTDYSVPFHHTPVSSMSSDL-NH2
notes: synthetic peptide of the series based on amino acids 423-548 of ARIP3; also called Cmpd No. 8
Work on B6 yielded an IC50 [3] of 28 µM.

Molecule Ac-IESLSD-NH2 [Ac-IESLSD-NH2] has an IC50 [4] of 20 µM.

B7: Ac-LTIESSSDEE-NH2 (peptide)
peptide: Ac-LTIESSSDEE-NH2
notes: synthetic peptide of the series based on amino acids 423-548 of ARIP3; also called Cmpd No. 10
For B7, the IC50 [3] was 4.7 µM.

For Ac-LTIEASSDEE-NH2 (also called Cmpd No. 20) [Ac-LTIEASSDEE-NH2], the IC50 [3] was 18 µM.

Ac-LTIESSSDEA-NH2 (also called Cmpd No. 24) [Ac-LTIESSSDEA-NH2] showed an IC50 [3] of 2.6 µM.

Ac-LTIASSSDEE-NH2 (also called Cmpd No. 19) [Ac-LTIASSSDEE-NH2] showed an IC50 [3] of 6.6 µM.

Ac-LTIESASDEE-NH2 (also called Cmpd No. 21) [Ac-LTIESASDEE-NH2] showed an IC50 [3] of 1.5 µM.

Molecule Ac-LTIESSSDAE-NH2 (also called Cmpd No. 23) [Ac-LTIESSSDAE-NH2] has an IC50 [3] of 14 µM.

Ac-DSSSEI-NH2 (also called Cmpd No. 37) [Ac-DSSSEI-NH2] gave an IC50 [5] of 20 µM and an IC50 [3] of 20 µM.

B8: Ac-KVESSSVFSKPASVTVASDA-NH2 (peptide)
peptide: Ac-KVESSSVFSKPASVTVASDA-NH2
notes: synthetic peptide of the series based on amino acids 423-548 of ARIP3; also called Cmpd No. 1
B8 gave an IC50 [3] of 34 µM.

B9: Ac-SVPFHHTPVS-NH2 (peptide)
peptide: Ac-SVPFHHTPVS-NH2
notes: synthetic peptide of the series based on amino acids 423-548 of ARIP3; also called Cmpd No. 13
Molecule B9 has an IC50 [3] of 27 µM.

B10: Ac-IESSSDE-NH2 (peptide)
peptide: Ac-IESSSDE-NH2
notes: truncation of Cmpd 10; also called Cmpd No. 53
In the case of B10, the IC50 [3] is reported as 19 µM.

B11: Ac-LTIESSSDE-NH2 (peptide)
peptide: Ac-LTIESSSDE-NH2
notes: truncation of Cmpd 10; also called Cmpd No. 25
With B11 the IC50 [3] was 30 µM.

B12: Ac-TIESSS-NH2 (peptide)
peptide: Ac-TIESSS-NH2
notes: truncation of Cmpd 10; also called Cmpd No. 47
Molecule B12 has an IC50 [3] of 12 µM.

B13: Ac-TIESSSD-NH2 (peptide)
peptide: Ac-TIESSSD-NH2
notes: truncation of Cmpd 10; also called Cmpd No. 29
B13 gave an IC50 [3] of 40 µM.

B14: Ac-FMSETQSSPTKGVLMYQPSSV-NH2 (peptide)
peptide: Ac-FMSETQSSPTKGVLMYQPSSV-NH2
notes: synthetic peptide of the series based on amino acids 423-548 of ARIP3; also called Cmpd No. 5
Work on B14 yielded an IC50 [3] of 15 µM.

B15: Ac-SVPFHHTPVSSMSSDL-NH2 (peptide)
peptide: Ac-SVPFHHTPVSSMSSDL-NH2
notes: synthetic peptide of the series based on amino acids 423-548 of ARIP3; also called Cmpd No. 12
B15 showed an IC50 [3] of 8.2 µM.

Ac-ESSSDE-NH2 [Ac-ESSSDE-NH2] showed an IC50 [4] of 11 µM.
